This is an account of results in ChEMBL document CHEMBL3351765, “Recent progress in sodium channel modulators for pain” (Bioorg Med Chem Lett, 2014).

Assay [1] concerns the target T1, Sodium channel protein type 9 subunit alpha (Homo sapiens, UniProt Q15858). Kind of assay: Inhibition of human Nav1.7 expressed in HEK293 cells by FLIPR method. The class given is cell-based.
In assay [2] the target is T1, Sodium channel protein type 9 subunit alpha. Kind of assay: Inhibition of human Nav1.7 expressed in HEK cells by patch-clamp method. The format is cell-based, HEK293. (The patch-clamp technique gives a direct electrical read-out from membranes.)
The target is the same in assay [3]. Kind of assay: Inhibition of human Nav1.7 expressed in HEK cells by whole-cell patch-clamp technique. The class given is cell-based, HEK293.
The target is the same in assay [4]. Kind of assay: Inhibition of human Nav1.7 expressed in HEK293 cells by electrophysiology method. The class given is cell-based.
The target is the same in assay [5]. Kind of assay: Inhibition of Nav1.7 (unknown origin) expressed in HEK293 cells by PatchXpress method. The class given is cell-based.
Assay [6] concerns the target T2, Sodium channel protein type 5 subunit alpha (Homo sapiens, UniProt Q14524). Kind of assay: Inhibition of Nav1.5 (unknown origin) expressed in HEK293 cells by IonWorks patch-clamp method. The format is cell-based.
For the next assay, the system named is HEK293. Briefly: Selectivity ratio of IC50 for human Nav1.5 to IC50 for human Nav1.7 expressed in HEK293 cells. The class given is cell-based.
In assay [7] the target is T2, Sodium channel protein type 5 subunit alpha. Kind of assay: Inhibition of Nav1.5 (unknown origin).
Assay [8] has as its target T1, Sodium channel protein type 9 subunit alpha. Kind of assay: Inhibition of Nav1.7 (unknown origin).
Assay [9] has the same target. Briefly: Inhibition of human Nav1.7 expressed in HEK293 cells […] by QPatch method. The format is cell-based.

T1 sequence (Q15858 whole entry): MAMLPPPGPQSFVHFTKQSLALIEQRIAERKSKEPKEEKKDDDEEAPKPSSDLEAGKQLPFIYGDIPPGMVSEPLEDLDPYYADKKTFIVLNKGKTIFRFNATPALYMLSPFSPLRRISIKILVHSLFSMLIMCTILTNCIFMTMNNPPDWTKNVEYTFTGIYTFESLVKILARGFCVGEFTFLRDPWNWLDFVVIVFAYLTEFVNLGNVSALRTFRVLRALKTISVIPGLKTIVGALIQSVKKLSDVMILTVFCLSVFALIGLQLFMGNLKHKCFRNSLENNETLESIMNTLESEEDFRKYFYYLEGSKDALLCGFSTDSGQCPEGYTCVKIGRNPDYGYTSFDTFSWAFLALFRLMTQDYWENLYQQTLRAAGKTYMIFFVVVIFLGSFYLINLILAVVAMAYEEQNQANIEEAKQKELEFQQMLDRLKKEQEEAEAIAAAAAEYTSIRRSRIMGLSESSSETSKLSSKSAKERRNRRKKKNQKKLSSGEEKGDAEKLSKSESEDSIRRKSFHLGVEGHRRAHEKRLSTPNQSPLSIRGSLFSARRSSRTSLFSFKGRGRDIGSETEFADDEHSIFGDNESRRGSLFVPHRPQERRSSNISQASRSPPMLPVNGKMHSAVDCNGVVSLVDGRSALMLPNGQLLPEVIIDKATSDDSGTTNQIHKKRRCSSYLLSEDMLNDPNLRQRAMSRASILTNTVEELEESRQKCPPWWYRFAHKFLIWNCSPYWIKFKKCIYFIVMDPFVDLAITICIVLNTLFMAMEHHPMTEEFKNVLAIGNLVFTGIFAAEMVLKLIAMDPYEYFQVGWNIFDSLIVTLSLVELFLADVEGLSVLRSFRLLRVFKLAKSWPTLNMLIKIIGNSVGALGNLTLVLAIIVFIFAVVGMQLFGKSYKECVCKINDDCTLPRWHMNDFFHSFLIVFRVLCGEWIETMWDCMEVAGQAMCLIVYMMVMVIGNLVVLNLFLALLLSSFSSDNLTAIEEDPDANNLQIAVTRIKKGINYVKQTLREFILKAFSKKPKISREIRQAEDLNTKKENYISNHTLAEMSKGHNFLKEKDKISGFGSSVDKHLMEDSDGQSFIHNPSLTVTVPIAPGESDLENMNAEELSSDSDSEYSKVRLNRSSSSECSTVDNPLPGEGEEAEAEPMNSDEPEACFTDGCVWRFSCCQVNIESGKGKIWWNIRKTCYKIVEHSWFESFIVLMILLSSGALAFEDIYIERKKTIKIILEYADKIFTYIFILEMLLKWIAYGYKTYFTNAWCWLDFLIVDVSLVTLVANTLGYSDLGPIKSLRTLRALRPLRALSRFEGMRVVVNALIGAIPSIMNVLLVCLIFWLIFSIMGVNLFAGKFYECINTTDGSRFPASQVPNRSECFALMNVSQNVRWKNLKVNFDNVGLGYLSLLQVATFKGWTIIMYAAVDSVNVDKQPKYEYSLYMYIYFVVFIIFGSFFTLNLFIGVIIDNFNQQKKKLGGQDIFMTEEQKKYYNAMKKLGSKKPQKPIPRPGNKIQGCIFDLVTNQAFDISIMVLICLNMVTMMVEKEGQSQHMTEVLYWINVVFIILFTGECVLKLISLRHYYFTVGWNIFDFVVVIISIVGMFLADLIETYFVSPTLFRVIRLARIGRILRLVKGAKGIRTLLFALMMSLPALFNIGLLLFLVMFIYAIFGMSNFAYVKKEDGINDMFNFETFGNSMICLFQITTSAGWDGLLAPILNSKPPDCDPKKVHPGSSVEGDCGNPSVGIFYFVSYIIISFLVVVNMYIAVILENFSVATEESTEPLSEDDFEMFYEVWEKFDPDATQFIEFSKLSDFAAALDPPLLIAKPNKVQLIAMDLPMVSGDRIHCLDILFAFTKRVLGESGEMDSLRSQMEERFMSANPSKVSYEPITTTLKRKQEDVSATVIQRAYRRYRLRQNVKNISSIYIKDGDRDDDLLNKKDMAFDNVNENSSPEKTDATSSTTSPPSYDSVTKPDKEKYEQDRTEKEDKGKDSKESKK
T2 sequence (Q14524 whole entry): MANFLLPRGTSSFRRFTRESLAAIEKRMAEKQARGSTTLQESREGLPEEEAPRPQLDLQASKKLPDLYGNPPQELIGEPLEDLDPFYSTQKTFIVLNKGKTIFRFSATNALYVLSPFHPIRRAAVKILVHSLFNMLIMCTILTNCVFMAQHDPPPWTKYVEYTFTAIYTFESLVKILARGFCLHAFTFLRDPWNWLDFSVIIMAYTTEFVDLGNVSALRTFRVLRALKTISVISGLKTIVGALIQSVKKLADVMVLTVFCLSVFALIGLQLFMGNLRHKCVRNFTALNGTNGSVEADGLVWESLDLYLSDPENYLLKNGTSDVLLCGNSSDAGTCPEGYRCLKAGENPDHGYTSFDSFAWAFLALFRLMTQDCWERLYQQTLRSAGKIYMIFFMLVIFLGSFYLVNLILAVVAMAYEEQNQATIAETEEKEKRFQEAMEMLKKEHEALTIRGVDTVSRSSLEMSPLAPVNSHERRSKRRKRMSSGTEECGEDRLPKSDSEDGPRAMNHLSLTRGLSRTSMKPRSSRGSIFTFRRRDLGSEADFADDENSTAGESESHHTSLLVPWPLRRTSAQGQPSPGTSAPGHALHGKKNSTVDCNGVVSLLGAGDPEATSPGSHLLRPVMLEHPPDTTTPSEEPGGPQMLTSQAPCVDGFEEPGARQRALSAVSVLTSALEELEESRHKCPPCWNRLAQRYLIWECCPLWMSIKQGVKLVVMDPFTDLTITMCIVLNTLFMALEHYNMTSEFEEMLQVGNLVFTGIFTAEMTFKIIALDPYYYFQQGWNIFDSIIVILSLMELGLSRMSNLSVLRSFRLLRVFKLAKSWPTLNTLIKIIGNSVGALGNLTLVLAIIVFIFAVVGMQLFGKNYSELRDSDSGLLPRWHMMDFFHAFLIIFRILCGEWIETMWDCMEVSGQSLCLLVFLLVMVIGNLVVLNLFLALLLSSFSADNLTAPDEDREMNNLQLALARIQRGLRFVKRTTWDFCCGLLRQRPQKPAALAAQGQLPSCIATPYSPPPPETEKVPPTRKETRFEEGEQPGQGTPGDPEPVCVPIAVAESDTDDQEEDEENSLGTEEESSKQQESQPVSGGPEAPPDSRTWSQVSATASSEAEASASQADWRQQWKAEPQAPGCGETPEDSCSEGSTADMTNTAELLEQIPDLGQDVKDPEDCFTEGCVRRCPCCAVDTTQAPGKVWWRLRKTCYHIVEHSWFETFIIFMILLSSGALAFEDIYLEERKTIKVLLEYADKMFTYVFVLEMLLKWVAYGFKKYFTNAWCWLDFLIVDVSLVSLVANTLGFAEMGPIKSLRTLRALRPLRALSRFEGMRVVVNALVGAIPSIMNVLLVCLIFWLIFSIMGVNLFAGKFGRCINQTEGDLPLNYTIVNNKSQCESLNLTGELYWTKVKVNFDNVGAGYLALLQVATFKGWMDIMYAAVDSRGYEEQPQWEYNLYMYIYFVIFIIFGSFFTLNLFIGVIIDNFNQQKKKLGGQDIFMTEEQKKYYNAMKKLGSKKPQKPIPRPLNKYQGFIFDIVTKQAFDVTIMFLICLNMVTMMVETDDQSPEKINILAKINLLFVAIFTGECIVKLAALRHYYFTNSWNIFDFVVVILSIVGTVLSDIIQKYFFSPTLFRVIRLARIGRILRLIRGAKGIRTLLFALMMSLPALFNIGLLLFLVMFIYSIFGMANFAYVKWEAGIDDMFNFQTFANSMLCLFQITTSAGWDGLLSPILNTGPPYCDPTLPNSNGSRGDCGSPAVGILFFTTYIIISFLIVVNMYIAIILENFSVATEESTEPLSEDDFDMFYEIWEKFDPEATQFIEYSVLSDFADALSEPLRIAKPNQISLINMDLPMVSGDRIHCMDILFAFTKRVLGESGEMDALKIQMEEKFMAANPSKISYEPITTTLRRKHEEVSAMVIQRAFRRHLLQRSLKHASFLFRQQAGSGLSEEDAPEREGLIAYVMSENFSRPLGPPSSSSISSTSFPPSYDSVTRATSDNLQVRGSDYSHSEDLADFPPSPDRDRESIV

With `O=C(NCC1CCCCN1)c1ccc(Oc2cc(C(F)(F)F)cc(C(F)(F)F)c2)cc1` (centres undefined), it took 1150 nM to reach half-maximal inhibition in [1] (IC50). With `COc1cc(C(=O)N2CCC3(CC2)CN(CC(F)F)CC(c2ccccn2)O3)ccc1OC(C)C` (centres undefined), the IC50 (as a rule, the midpoint of a concentration-inhibition curve) in assay [2] is less than 2000 nM.

For the compound `CCOc1ncccc1-c1cc(C(=O)NS(C)(=O)=O)ccc1Oc1ccc(Cl)c(C(F)(F)F)c1`, in assay [3], the IC50 was determined as 35 nM. In [2], `COc1cc(C(=O)N2CCC3(CC2)c2ccc(C(F)(F)F)n2CCN3C)ccc1OC(C)C` came in with a 50% inhibitory concentration (IC50) of less than 2000 nM. As for `NC(=O)c1cnc(-c2ccc(Oc3cc(F)cc(Cl)c3)cc2)nc1[C@@H](O)CO`, the inhibition constant (Ki) (as a rule, the equilibrium dissociation constant of an inhibitor or competing ligand from its target) in assay [4] is 27 nM. This compound had an IC50 in assay [1] of 67 nM. Compound `CC1(COc2ccc(-n3nc(C4CC4)c4cc(C(=O)NS(C)(=O)=O)ccc43)cn2)CC1` came in with a 50% inhibitory concentration (IC50) in assay [3] of 130 nM. As to `Cn1cc(-c2ccc(C(F)(F)F)cc2-c2cn[nH]c2)c2ccc(S(=O)(=O)Nc3ncns3)cc21`, the concentration for half-maximal inhibition (IC50) is 38 nM in assay [5] and more than 10000 nM in assay [6]. Regarding `C[C@H](c1ccccc1C1(F)CNC1)n1c(=O)oc2cc(S(=O)(=O)Nc3nccs3)c(F)cc21`, the Ratio IC50 with HEK293 came out at 5540. Compound `CN(C)c1ccc(C(=O)NC2CC23CCN(c2ccccc2)CC3)c2ccccc12` (centres undefined) gave a concentration for half-maximal inhibition (IC50) in assay [1] of 237 nM. For the compound `Nc1noc2ccc(-c3cc(Cl)ccc3Oc3cc(F)c(S(=O)(=O)Nc4ncns4)cc3F)cc12`, the IC50 in assay [7] is more than 1000 nM. In [8], `O=S(=O)(Nc1ncns1)c1cc(F)c(OC[C@@H]2CNCC[C@H]2c2ccc(Cl)cc2)cc1F` showed a 50% inhibitory concentration (IC50) of 3.3 nM. Turning to `Cc1oc2nc(-c3ccccc3Cl)nn2c1CNCCc1ccccc1Cl`, in [1], the IC50 was 620 nM. Turning to `Cc1ccc(OCC(C)C)c(-c2cccc([C@H]3CC[C@]4(CCN(C)C4=O)N3)c2)c1`, the IC50 in assay [9] was 398 nM. With `CCCCCN1C(=O)COCC1c1cncc(-c2ccc(OC(F)(F)F)cc2)c1` (centres undefined), the IC50 in assay [1] was 770 nM. For `CCOC1CC(c2scnc2C)OC2(CCN(C(=O)c3ccc(OC(C)C)c(C)c3)CC2)C1` (centres undefined), the IC50 in assay [2] is less than 2000 nM. In the case of `O=S(=O)(Nc1ncns1)c1ccc2c(c1)OCCN2c1ccc(C(F)(F)F)cc1Cl`, the half-maximal inhibitory concentration (IC50) in assay [6] was more than 10000 nM. Same read-out and setting: under `O=S(=O)(Nc1ncns1)N1CCc2c(cccc2-c2ccc(C(F)(F)F)cc2C2=CCNCC2)C1` stands more than 10000 nM.
